The record followed here is patent publication US7652047B2, “Phenylamino isothiazole carboxamidines as MEK inhibitors” (Ardea Biosciences, Inc., priority 2005, dated 2010).

This assay addresses T1, MEK1^CA (human GST-MEK1, constitutively active, Ser218Asp and Ser222Asp) (Homo sapiens, UniProt Q02750, S218D/S222D).
T1 construct: GST; made in house; host or cells: Escherichia coli
In words: MEK1 enzymatic activity assay (MEK1^CA / ERK2 / MBP, [γ-33P]ATP incorporation). Format: biochemical. The note with it: Table 1, compounds of formula I; read-out: Avg IC50. In outline: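 Cascade assay: 25 µl reactions with 0.002 nmol E. coli-expressed GST-MEK1 S218D/S222D, 0.02 nmol His-tagged mouse ERK2, 0.25 nmol MBP, 0.25 nmol unlabeled ATP and 0.1 µCi [γ-33P]ATP. Compound preincubated 30 min at ambient temperature with MEK1/ERK2; stopped with TCA, 33P-labelled protein filter-captured and scintillation-counted.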

T1 sequence (Q02750 whole entry S218D/S222D): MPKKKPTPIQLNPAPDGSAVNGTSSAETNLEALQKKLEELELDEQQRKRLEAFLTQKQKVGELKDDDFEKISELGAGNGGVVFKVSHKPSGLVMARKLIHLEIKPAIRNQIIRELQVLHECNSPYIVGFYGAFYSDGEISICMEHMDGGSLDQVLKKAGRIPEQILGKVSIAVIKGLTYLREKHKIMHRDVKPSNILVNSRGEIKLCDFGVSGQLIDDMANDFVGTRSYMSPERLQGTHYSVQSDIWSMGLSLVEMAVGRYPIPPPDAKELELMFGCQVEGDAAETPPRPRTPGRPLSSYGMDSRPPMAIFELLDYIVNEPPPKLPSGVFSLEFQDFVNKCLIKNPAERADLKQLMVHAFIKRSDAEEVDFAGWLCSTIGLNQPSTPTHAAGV

In general, IC50 refers to the concentration needed to halve the response being measured. Turning to `N=C(NC1(CO)CCCC1)c1c(O)nsc1Nc1ccc(Oc2ccccc2)cc1` [compound 190], the IC50 was in the range of 100 to 500 nM.

Consider `CC(CO)NC(=N)c1c(O)nsc1Nc1ccc(Oc2ccc(Cl)cc2)cc1` (centres unmarked) [compound 191], for which the IC50 was in the range of 100 to 500 nM.

Take `N=C(NCCO)c1c(O)nsc1Nc1ccc(Oc2ccc(Cl)cc2)cc1` [compound 192]: the IC50 lay within 100 to 500 nM.

`CCC[C@H]1CC[C@H](c2ccc(Nc3snc(O)c3C(=N)NC[C@@H](O)CO)cc2)CC1` [compound 193]: the IC50 was over 500 nM.

As to `CCn1sc(Nc2ccc(Oc3ccccc3)cc2)c(C(=N)NC(C)C)c1=O` [compound 194], the IC50 was over 500 nM.

Turning to `CC(C)C(=O)O[C@H]1CC[C@H](c2ccc(Nc3snc(O)c3C(=N)NCC(O)CO)cc2)CC1` (some centres unmarked) [compound 195], the IC50 was over 500 nM.

For the compound `N=C(NCC(O)CO)c1c(O)nsc1Nc1ccc([C@H]2CC[C@H](O)CC2)cc1` (some centres unmarked) [compound 196], the IC50 is over 500 nM.

For `CC(C)NC(=N)c1c(O)nsc1Nc1ccc([C@H]2CC[C@H](OC(=O)C(C)C)CC2)cc1` [compound 197], the IC50 is 100 to 500 nM.

Consider `CNC(=N)c1c(O)nsc1Nc1ccc(Oc2ccccc2)cc1` [compound 198], for which the IC50 is 1 to 100 nM.

In the case of `CCNC(=N)c1c(O)nsc1Nc1ccc(Oc2ccccc2)cc1` [compound 199], the IC50 is 1 to 100 nM.

On to `C=CCNC(=N)c1c(O)nsc1Nc1ccc(Oc2ccccc2)cc1` [compound 200], for which the IC50 was in the range of 1 to 100 nM.

Take `CCCNC(=N)c1c(O)nsc1Nc1ccc(Oc2ccccc2)cc1` [compound 201]: the IC50 was in the range of 100 to 500 nM.

Consider `CC(C)CNC(=N)c1c(O)nsc1Nc1ccc(Oc2ccccc2)cc1` [compound 202], for which the IC50 was 1 to 100 nM.

Regarding `N=C(NCC(O)O)c1c(O)nsc1Nc1ccc(Oc2ccc(F)cc2)cc1` [compound 203], the IC50 is over 500 nM.

Turning to `N=C(NCCO)c1c(O)nsc1Nc1ccc(Oc2ccc(F)cc2)cc1` [compound 204], the IC50 is over 500 nM.

For the compound `CC(C)NC(=N)c1c(O)nsc1Nc1ccc(Oc2ccc(F)cc2)cc1` [compound 205], the IC50 is 100 to 500 nM.

Consider `CC(CO)NC(=N)c1c(O)nsc1Nc1ccc(Oc2ccc(F)cc2)cc1` (centres unmarked) [compound 206], for which the IC50 was over 500 nM.

As for `N=C(NCCO)c1c(O)nsc1Nc1ccc(Oc2ccc(F)cc2)c(Br)c1` [compound 207], the IC50 was over 500 nM.

Consider `N=C(NCC(O)O)c1c(O)nsc1Nc1ccc(Oc2ccc(F)cc2)c(Br)c1` [compound 208], for which the IC50 was over 500 nM.

Take `CC(CO)NC(=N)c1c(O)nsc1Nc1ccc(Oc2ccc(F)cc2)c(Br)c1` (centres unmarked) [compound 209]: the IC50 fell in the range of 100 to 500 nM.

Turning to `N=C(NCC(O)O)c1c(O)nsc1Nc1ccc(Oc2ccccc2Cl)cc1` [compound 210], the IC50 lay in the range of 100 to 500 nM.

On to `CC(CO)NC(=N)c1c(O)nsc1Nc1ccc(Oc2ccccc2Cl)cc1` (centres unmarked) [compound 211], for which the IC50 is over 500 nM.

For the compound `CC(C)NC(=N)c1c(O)nsc1Nc1ccc(Oc2ccccc2Cl)cc1` [compound 212], the IC50 was in the range of 100 to 500 nM.

For `N=C(NCCO)c1c(O)nsc1Nc1ccc(Oc2ccccc2Cl)cc1` [compound 213], the IC50 is 1 to 100 nM.

With `N=C(NCC(O)CO)c1c(O)nsc1Nc1ccc(I)cc1` (centres unmarked) [compound 216], the IC50 was over 500 nM.

As to `N=C(NCCO)c1c(O)nsc1Nc1ccc(I)cc1` [compound 217], the IC50 is over 500 nM.

Regarding `CC(CO)NC(=N)c1c(O)nsc1Nc1ccc(/N=N/c2ccccc2)cc1` (centres unmarked) [compound 219], the IC50 fell in the range of 1 to 100 nM.

For `CC(CO)NC(=N)c1c(O)nsc1Nc1ccc(OC2CCCCC2)cc1` (centres unmarked) [compound 220], the IC50 was over 500 nM.

`N=C(NCCO)c1c(O)nsc1Nc1ccc(Oc2ccc(Cl)cc2Cl)cc1` [compound 221]: the IC50 is 100 to 500 nM.

On to `CC(C)NC(=N)c1c(O)nsc1Nc1cc(Cl)cc(Cl)c1` [compound 224], for which the IC50 lay within 100 to 500 nM.

Turning to `CC(C)NC(=N)c1c(O)nsc1Nc1ccc(Cl)cc1Cl` [compound 225], the IC50 lay in the range of 1 to 100 nM.

With `CC(C)NC(=N)c1c(O)nsc1Nc1ccc2c(c1)Cc1ccccc1-2` [compound 227], the IC50 is over 500 nM.

`N=C(NCC(O)O)c1c(O)nsc1Nc1ccc(Oc2ccc(Cl)cc2Cl)cc1` [compound 229]: the IC50 was in the range of 1 to 100 nM.

`CNC(=N)c1c(O)nsc1Nc1ccc(Oc2ccc(F)cc2)c(Br)c1` [compound 230]: the IC50 is over 500 nM.

Consider `CNC(=N)c1c(O)nsc1Nc1ccc(Oc2ccc(Cl)cc2Cl)cc1` [compound 231], for which the IC50 was in the range of 100 to 500 nM.

`CC(C)NC(=N)c1c(O)nsc1Nc1ccc(Oc2ccc(Cl)cc2Cl)cc1` [compound 232]: the IC50 lay in the range of 1 to 100 nM.

Consider `CC(CO)NC(=N)c1c(O)nsc1Nc1cc(Cl)cc(Cl)c1` (centres unmarked) [compound 233], for which the 50% inhibitory concentration (IC50) was 100 to 500 nM.

For the compound `CC(C)NC(=N)c1c(O)nsc1Nc1ccc(C(=O)c2ccccc2)cc1` [compound 234], the IC50 was in the range of 100 to 500 nM.

Regarding `CC(CO)NC(=N)c1c(O)nsc1Nc1ccc(/C=C/c2ccccc2)cc1` (centres unmarked) [compound 240], the IC50 was 100 to 500 nM.

Turning to `CC(C)NC(=N)c1c(O)nsc1Nc1ccc(/C=C/c2ccccc2)cc1` [compound 241], the IC50 lay in the range of 100 to 500 nM.

For `CC(C)NC(=N)c1c(O)nsc1Nc1ccc(Oc2ccc(F)cc2)c(Br)c1` [compound 242], the IC50 is 100 to 500 nM.

On to `CC(C)NC(=N)c1c(O)nsc1Nc1ccc(O)c(Cl)c1` [compound 243], for which the IC50 lay within 100 to 500 nM.

Regarding `CC(C)NC(=N)c1c(O)nsc1Nc1ccc(S(=O)(=O)c2ccccc2)cc1` [compound 244], the IC50 is over 500 nM.

For the compound `Cc1ccc(Oc2ccc(Nc3snc(O)c3C(=N)NC(C)C)cc2)cc1` [compound 246], the concentration for half-maximal inhibition (IC50) was in the range of 1 to 100 nM.

`Cc1ccc(Oc2ccc(Nc3snc(O)c3C(=N)NC(C)CO)cc2)cc1` (centres unmarked) [compound 247]: the IC50 lay in the range of 100 to 500 nM.

Consider `CC(C)NC(=N)c1c(O)nsc1Nc1ccc(Oc2cc(Cl)cc(Cl)c2)cc1` [compound 248], for which the IC50 is 1 to 100 nM.

Turning to `CC(C)NC(=N)c1c(O)nsc1Nc1ccc(Oc2cccc(Cl)c2)cc1` [compound 249], the IC50 was in the range of 1 to 100 nM.

In the case of `CC(C)NC(=N)c1c(O)nsc1Nc1ccc(Oc2cccc(Br)c2)cc1` [compound 250], the half-maximal inhibitory concentration (IC50) fell in the range of 1 to 100 nM.

In the case of `CC(CO)NC(=N)c1c(O)nsc1Nc1ccc(Oc2cccc(Br)c2)cc1` (centres unmarked) [compound 251], the IC50 lay in the range of 1 to 100 nM.

For the compound `CC(CO)NC(=N)c1c(O)nsc1Nc1ccc(Oc2cccc(Cl)c2)cc1` (centres unmarked) [compound 252], the IC50 was 1 to 100 nM.

Consider `CC(C)NC(=N)c1c(O)nsc1Nc1ccc(OC2CCNCC2)cc1` [compound 253], for which the IC50 is over 500 nM.

As for `CC(C)NC(=N)c1c(O)nsc1Nc1ccc(Sc2ccccc2)cc1` [compound 255], the IC50 lay in the range of 1 to 100 nM.

With `CC(C)NC(=N)c1c(O)nsc1Nc1ccc(Oc2ccccc2)nc1` [compound 257], the IC50 is over 500 nM.

As to `CC(CO)NC(=N)c1c(O)nsc1Nc1ccc(Oc2ccccc2)nc1` (centres unmarked) [compound 258], the IC50 was over 500 nM.

On to `Cc1ccc(Oc2ccc(Nc3snc(O)c3C(=N)NC(C)C)cc2)cn1` [compound 259], for which the IC50 is over 500 nM.

Consider `CC(C)NC(=N)c1c(O)nsc1Nc1ccc(Oc2cccc(N(C)C)c2)cc1` [compound 260], for which the half-inhibitory concentration (IC50) was in the range of 100 to 500 nM.

`Cc1cc(C#N)cc(C)c1Oc1ccc(Nc2snc(O)c2C(=N)NC(C)C)cc1` [compound 262]: the IC50 is over 500 nM.

`CC(C)NC(=N)c1c(O)nsc1Nc1ccc(Cl)nc1` [compound 264]: the IC50 was over 500 nM.

With `CC(CO)NC(=N)c1c(O)nsc1Nc1ccc(OCc2ccccc2)cc1` (centres unmarked) [compound 265], the IC50 was over 500 nM.

As to `Cc1cc(C)cc(Oc2ccc(Nc3snc(O)c3C(=N)NC(C)C)cc2)c1` [compound 267], the IC50 fell in the range of 1 to 100 nM.

Turning to `Cc1cc(C)cc(Oc2ccc(Nc3snc(O)c3C(=N)NC(C)CO)cc2)c1` (centres unmarked) [compound 268], the IC50 is 100 to 500 nM.

As for `CC(C)NC(=N)c1c(O)nsc1Nc1ccc(Oc2cccc(C(F)(F)F)c2Cl)cc1` [compound 269], the IC50 lay in the range of 1 to 100 nM.

`COc1cccc(F)c1Oc1ccc(Nc2snc(O)c2C(=N)NC(C)C)cc1` [compound 270]: the IC50 was over 500 nM.

Consider `Cc1cccc(C)c1Oc1ccc(Nc2snc(O)c2C(=N)NC(C)C)cc1` [compound 271], for which the IC50 is over 500 nM.

With `CC(C)NC(=N)c1c(O)nsc1Nc1ccc(Oc2cccc(F)c2)cc1` [compound 272], the IC50 fell in the range of 1 to 100 nM.

For the compound `CC(CO)NC(=N)c1c(O)nsc1Nc1ccc(Oc2cccc(F)c2)cc1` (centres unmarked) [compound 273], the IC50 was 1 to 100 nM.

For the compound `CC(C)NC(=N)c1c(O)nsc1Nc1ccc(Oc2cccc(C(F)(F)F)c2)cc1` [compound 275], the IC50 was 1 to 100 nM.

As to `Cc1cccc(C)c1Oc1ccc(Nc2snc(O)c2C(=N)NC(C)CO)cc1F` (centres unmarked) [compound 276], the IC50 was over 500 nM.

Turning to `CC(C)NC(=N)c1c(O)nsc1Nc1ccc(Oc2ccccc2Cl)c(F)c1` [compound 277], the IC50 fell in the range of 1 to 100 nM.

As to `CC(CO)NC(=N)c1c(O)nsc1Nc1ccc(Oc2ccccc2Cl)c(F)c1` (centres unmarked) [compound 278], the IC50 is 1 to 100 nM.

`Cc1cccc(C)c1Oc1ccc(Nc2snc(O)c2C(=N)NC(C)C)cc1F` [compound 279]: the IC50 is 1 to 100 nM.

On to `CC(CO)NC(=N)c1c(O)nsc1Nc1ccc(Oc2ccccc2Br)c(Cl)c1` (centres unmarked) [compound 280], for which the IC50 fell in the range of 1 to 100 nM.

Regarding `COc1cccc(F)c1Oc1ccc(Nc2snc(O)c2C(=N)NC(C)CO)cc1` (centres unmarked) [compound 281], the IC50 fell in the range of 100 to 500 nM.

Turning to `Cc1cccc(C)c1Oc1ccc(Nc2snc(O)c2C(=N)NC(C)CO)cc1` (centres unmarked) [compound 282], the IC50 is over 500 nM.

Regarding `CC(CO)NC(=N)c1c(O)nsc1Nc1ccc(Oc2cccc(C(C)(C)C)c2)cc1` (centres unmarked) [compound 284], the IC50 was in the range of 100 to 500 nM.

`Cc1cc(C#N)cc(C)c1Oc1ccc(Nc2snc(O)c2C(=N)NC(C)C)cc1Cl` [compound 285]: the IC50 was over 500 nM.

On to `CC(C)NC(=N)c1c(O)nsc1Nc1ccc(Oc2ccccc2)c(Cl)c1` [compound 286], for which the IC50 is 1 to 100 nM.
